Assay results: patent publication EP0300806A1, “Opioid analgesic liposomal delivery-release system” (VESTAR, INC., priority 1987, dated 1989)
Where a name gives a salt, the structure may show the parent alone.

Key:
[1] = tested on: phenylquinone-induced writhing; experiment: phenylquinone-induced writhing assay, analgesia after i.m. injection; type: in vivo, Mice
Method: Duration of analgesia was evaluated using the phenylquinone-induced writhing assay essentially as described by Pircio et al. R.W. Pircio, J.A. Gylys, R.L. Cavanagh, J.P. Buyniski and M.E. Bierwagen, 220 Archives Internationales de Pharmacodynamie et de Therapie, 231-57 (1976). Mice were given intraperitoneal injections of 0.025% (w/v) phenyl-p-quinone in 5% ethanol (2.5 mg/kg). […] The writhing phenomenon has been described by Siegmund et al. E. Siegmund, R. Cadmus, G. Lu, 95 Proceedings of the Society for Experimental Biology and Medicine, 729-31 (1957). Five animals per observer was established as a manageable procedure yielding values which were reproducible and consistent from observer to observer. […]
The dose required for single injection ED₅₀ and ED₁₀₀ of free butorphanol tartrate was determined by administering various doses of free drug intramuscularly 15 minutes prior to the i.p. injections of phenylquinone. […] The ED₅₀ and ED₁₀₀ values determined in this study were compared for agreement with reported literature values and used along with control values as a reference standard for each study. […]
Extended analgesia studies were conducted using no fewer than 50 animals per treatment group. […] The times at which analgesic effect was measured were based on the particular treatment and on the results of the previous bioassays for the treatment group.

[2] = tested on: phenylquinone-induced writhing; experiment: tolerance (tachyphylaxis) studies: shift of ED50 of free butorphanol tartrate in the writhing assay after pretreatment; type: in vivo, mice

## Oc1ccc2c(c1)C13CCCCC1(O)C(C2)N(CC1CCC1)CC3 (stereo not drawn) [free butorphanol tartrate, butorphanol tartrate]
[1]; 2 ug, 50 ug and 500 ug dose curves, Fig. 1
  effect of higher doses on duration of analgesia: do not provide extended efficacy
[1]; Mus musculus, im, 0.25 h, untreated mice, single i.m. injection of free drug 15 minutes prior to i.p. phenylquinone, read-out: ED₅₀
  ED50: 0.05 mg/kg
[2]; 5 injections of 100 ug/kg at 3 hr. intervals, second protocol, Fig. 6
  36 hr. ED₅₀: suggestive of recovery from tachyphylaxis
[2]; Mus musculus, im, after four i.m. injections of 50 ul saline at 3 hr. intervals, determined 13 hrs. after start, read-out: ED₅₀ for free butorphanol tartrate after multiple injections of saline
  ED50: ~0.125 mg/kg
[2]; after 4 injections of the ED₁₀₀ dose at 3 hr. intervals, first protocol, Fig. 2
  increase in ED₅₀ values between no treatment animals and multiple injection animals: 4-5 fold
[2]; pretreatment with 4 injections of 100 ug/kg, Fig. 4 bottom panel
  shift of ED₅₀ relative to its initial value: approximately 4 times its initial value
